{"source": "patent US20100062441A1", "about": "“C-MET MUTATIONS AND USES THEREOF” (priority 2007, published 2010)", "key": {"[1]": {"test_system": "R988C c-Met transgenic C. elegans", "method": "(§1) To examine the effect of human c-met gene expression in C. elegans, both wild-type c-Met cDNA and mutant c-Met cDNA were individually micro-injected into young adult wild type N2 hermaphrodite gonads (gonad syncitium), at a concentration of 25 μg/ml. The constructs for the mutant c-Met cDNA were generated as described above. Control animals (N2) were injected with vector alone. Injected animals were individually cloned and their progeny were observed under dissecting microscope. Progenies were isolated and examined for visible morphological abnormalities such as defects in vulval formation, body morphology and locomotion. Individually cloned transgenic animals were further analyzed for fecundity and viability.\n(§2) Animals in the progeny harboring a visible phenotype such as vulva defect, body morphology change, locomotion defect, and paralysis; and animals showing hyperactivity were isolated, individually cloned and examined with dissecting microscope. For detailed analysis of the phenotype, individual animals were mounted on an agar pad and observed under a Nikon Eclipse E600 fluorescence microscope equipped for Nomarski optics. Images were taken by a Hamamatsu Photonics CCD camera, and processed using the Metamorph digital imaging software (Siddiqui et al., Am J Physiol Lung Cell Mol Physiol 286, L1016-26 (2004)).\n(§3) To determine whether a c-Met germline mutation alone is sufficient for lung cancer development or whether in order to develop lung cancer development a synergism of c-Met with smoking is necessary, the C. elegans transgenic animals described above were exposed to nicotine. Nicotine response experiments were performed in M9 buffer as previously described by Waggoner, et al. (Waggoner et al., J Neurosci 20, 8802-11 (2000)). Animals were cultured at 20° C. on nematode growth media (NGM) plates seeded with E. coli strain OP50. To examine the nicotine dose response, individual young adult hermaphrodites were placed in 6-well microtiter plate in M9 buffer at different concentrations of nicotine. Following one hour incubation with nicotine medium plates at 20° C., total numbers of eggs laid by each individual animal were counted."}, "[2]": {"test_system": "T1010I c-Met transgenic C. elegans", "method": "as §1, §2, §3"}, "C. elegans N2 wild type": {"test_system": "C. elegans N2 wild type", "method": "as §1, §2, §3"}, "[3]": {"test_system": "wild type human c-Met transgenic C. elegans", "details": "Wt c-Met", "method": "as §1, §2, §3"}, "[4]": {"test_system": "reactive oxygen species (ROS) in MU melanoma cells", "assay": "Reactive oxygen species measurement by DHE immunofluorescence", "assay_type": "cell-based, human", "details": "HGF 40 ng/ml for 7.5 min; DHE", "method": "5×10^4 MU melanoma cells were plated in 35 mm petri dishes. After 24 hrs MU Melanoma cells were kept in serum free media containing 0.5% BSA with and without 5 μM SU11274 for 12 hrs. Cells were treated with 40 ng/ml HGF for 7.5 min, then treated with DHE 10 μM (molecular probes Inc, Eugene, Oreg.) for 30 min, after which they were visualized under a fluorescent Olympus microscope IX81, 20× objective, ND3 and Rhodamine filter sets. Fluorescence was then quantified using Image J and graphed.\nThe endogenous levels of reactive oxygen species (ROS) was also analyzed in MU melanoma cells with and without HGF treatment using DHE by fluorescence microscopy. DHE is a redox sensitive probe that has widely been used to detect intracellular superoxide anion. The relative levels of ROS were increased in response to HGF by 47%, and SU11274 decreased the ROS response to HGF to 3%."}, "NSCLC": {"test_system": "NSCLC", "details": "in combination with chemotherapy; cited from earlier work"}, "[5]": {"details": "chronic exposure with nicotine (20 μm)"}, "[6]": {"details": "nicotine (20 μM) for 24 hours or more"}}, "note": "Values joined by “and” are separate entries in the source; they are usually repeats but may differ in a detail not shown here. Equal entries are not always repeated.", "data": [{"compound": "CN1CCCC1c1cccnc1", "note": "(stereo not shown) [nicotine]", "values": [{"measurement": "Body Shape Changes", "setting": "[1]; [5]", "value": "18% and 18 ± 0.13 %"}, {"measurement": "Growth Arrest", "setting": "[1]; [5]", "value": "22.9% and 22.9 ± 0.41 %"}, {"measurement": "viability", "setting": "[1]; in the presence of nicotine", "value": 30.54, "unit": "%"}, {"measurement": "vulval defects", "setting": "[1]; [6]", "value": 15, "unit": "%"}, {"measurement": "Body Shape Changes", "setting": "[2]; [5]", "value": "21% and 21 ± 0.14 %"}, {"measurement": "Growth Arrest", "setting": "[2]; [5]", "value": "29% and 29.0 ± 0.11 %"}, {"measurement": "viability", "setting": "[2]; in the presence of nicotine", "value": 4.58, "unit": "%"}, {"measurement": "vulval defects", "setting": "[2]; [6]", "value": 28, "unit": "%"}, {"measurement": "Body Shape Changes", "setting": "C. elegans N2 wild type; [5]", "value": "3% and 3 ± 0.21 %"}, {"measurement": "Growth Arrest", "setting": "C. elegans N2 wild type; [5]", "value": "1.23% and 1.23 ± 0.19 %"}, {"measurement": "Locomotion Defects", "setting": "C. elegans N2 wild type; [5]", "value": "1% and 1 ± 0.18 %"}, {"measurement": "Paralysis", "setting": "C. elegans N2 wild type; [5]", "value": "2% and 2 ± 0.02 %"}, {"measurement": "viability", "setting": "C. elegans N2 wild type; in the presence of nicotine", "value": 91.94, "unit": "%"}, {"measurement": "vulval defects", "setting": "C. elegans N2 wild type; [6]", "value": 2, "unit": "%"}, {"measurement": "Body Shape Changes", "setting": "[3]; [5]", "value": "12% and 12 ± 0.22 %"}, {"measurement": "Growth Arrest", "setting": "[3]; [5]", "value": "9.72% and 9.72 ± 0.16 %"}, {"measurement": "Locomotion Defects", "setting": "[3]; [5]", "value": "11% and 11 ± 0.09 %"}, {"measurement": "Paralysis", "setting": "[3]; [5]", "value": "8% and 8 ± 0.08 %"}, {"measurement": "viability", "setting": "[3]; in the presence of nicotine", "value": 65.06, "unit": "%"}, {"measurement": "vulval defects", "setting": "[3]; [6]", "value": 6, "unit": "%"}]}, {"compound": "HGF: hepatocyte growth factor, the ligand for c-Met", "values": [{"measurement": "increase of relative levels of ROS", "setting": "[4]", "value": 47, "unit": "%"}]}, {"compound": "bevacizumab: targeted therapy against VEGF", "values": [{"measurement": "enhancement of median overall survival", "setting": "NSCLC", "value": 2.3, "unit": "months"}]}]}
